Experiment [1] deals with isolated rat aorta. Briefly: In vitro induction of tolerance to NO releasing compounds (vasorelaxation of pre-exposed aortic rings). The experiment is classed as cell-based. Particulars: rings pre-treated with epinephrine and then with 0.44 mM of the same compound. The protocol: Aortic rings were prepared as described hereinabove, and were exposed to 0.44 mM GTN (vehicle was water:ethanol:propyleneglycol at proportional ratio of 1:1:1) for 1 hour before CCRC construction, to thereby induce tolerance to nitroglycerine. At the end of the tolerance induction period, rings were thrice washed with the path buffer (Krebs-bicrbonate) every 15 minutes for the following hour and then CCRC for vasorelaxation on GTN-induced tolerance rings were constructed for GTN (pretreated versus untreated rings, FIG. 15), in order to verify the ability to induce and measure GTN tolerance induction in vitro
Attempted induction of tolerance to the NO-donating compounds of the present invention was performed under the same conditions as for GTN. Thus, in an exemplary experiment, rings were exposed to 0.44 mM solution of Pet-3 in the attempt to induce tolerance for Pet-3. CCRC were then measured for the vasorelaxing effect of Pet-3 on a group of rings which were pre-exposed to Pet-3 as to induce tolerance to Pet-3, and for an untreated control group. The above protocol was repeated with Pet-2, Pet-7, Pet-8, Pet-12, Pet-24, Pet-43, Pet-149 and Pet-152.

In experiment [2] the test system is isolated rat aorta. Briefly: Chronic administration of Pet-120 and vasoactivity determination in isolated aorta. Format: in vivo. Particulars: Pet-120 for 7 days. The protocol: Male Sprague Dawley rats (250 to 300 grams) were used and housed under constant temperature and humidity conditions. The animals were anesthetized with intraperitoneal injection of ketamine and xylazine combination (50 and 10 mg/kg, respectively). An osmotic miniature pump (ALZA Corp., Palo Alto, Calif.) delivering constant volume (10 μl/hour) of vehicle and Pet-120 was connected to one of the intravenous catheters. The animals received 200 μg/hour for 7 days. As control, a similar number of animals underwent the same surgical procedure and received the vehicle alone (10 μl/hour of a solution consisting of 30% ethanol and 30% propylene glycol in sterile distilled water for injection). At the end of the infusion periods the rats were anesthetized by the combination described above. The abdomen was opened by midline incision and the thoracic aorta was isolate, washed and cleaned from the surrounding tissues.
The aorta of the rats which were treated as described hereinabove was cut into rings of 4-5 mm long each. The rings were mounted under 1 g tension in organ bath containing 30 ml of Krebs-Hansliet solution (pH 7.4) of the following composition (mM): NaCl […], CaCl2 1.6, MgSO4 1.2, KH2PO4 1.2, NaHCO3 25.0, D-glucose 11.1. At 37 C° and gassed with 95% O2- 5% CO2. […]

For experiment [3], the system named is c-GMP in slices of thoracic aorta of rats. The experiment in a line: Cyclic-GMP measurement in aortic rat tissue (radioimmunoassay). Format: cell-based. The method, then: GTN (10^−6 M) was added to the chamber and, 1 minute after exposure to the drug, rings (usually 3-5) were taken, wrapped with aluminum foil and immediately frozen in liquid nitrogen for storage. Control sample group was treated with the vehicle solution only. At the time of analysis, rings were thawed, blotted over a dry gauzed and weighted. A known weight of tissue was homogenized in 2 ml ice-cold modified Hank's balanced salt solution containing (in gram/liter) NaCl 8; KCl 0.4; glucose 1; KH2PO4 0.06; Na2HPO4 0.047; Phenol red 0.017 and further containing 25 mM EDTA (disodium salt). The homogenate was centrifuged at 4000 g (force units) for 10 minutes at 2-4° C. and the supernatant was thereafter transferred into fresh pre-cooled test tube containing 1 ml of acetonitrile. The tubes were vortex mixed for a few seconds and subsequently centrifuged at 4000 g for 5 minutes at 2-4° C., to remove the precipitated protein. Each supernatant was transferred into a clean test tube and evaporated to dryness under a stream of nitrogen at 55° C. The dry residue was reconstituted with 10 volumes of Tris-EDTA buffer pH 7.5 (0.05 M Tris containing 4 mM EDTA). Aliquots of 100 μl of the reconstituted solution in duplicate were used for c-GMP measurements using Amersham RIA kit, as is described in Haj-Yehia & Benet [Pharmacology, 1995, 273, 1, pp. 94-100]. Standard curves were plotted with six concentrations (0, 0.5, 1, 2, 4 and 8 pmoles of c-GMP per tube).
The NO-tolerance effect of GTN and NO-donor compounds according to the present invention was measured by following the production of c-GMP in slices of thoracic aorta of rats. Thus, the production of c-GMP was measured as described in the methods section above for the reference NO-donor compound GTN, and for the NO-donors of the present invention Pet-2, Pet-3, Pet-7, Pet-8, Pet-10, Pet-12, Pet-24, Pet-59, Pet-106, Pet-107, Pet-120, Pet-147, Pet-149, Pet-152, Pet-154 and Pet-155.

Another experiment deals with Sprague-Dawley rats. The experiment in a line: Effect of Pet-120 on mean arterial blood pressure (MABP) after intravenous bolus infusion. Format: in vivo, rat. The conditions noted are these: 50 micrograms Pet-120 after 10 micrograms phenylephrine. The protocol:
Male Sprague-Dawley rats weighing 310 grams at the beginning of the experiments were anesthetized with ketamine and xylazine (50 and 10 mg/kg, respectively), and an osmotic miniature pump (model 2002; ALZA Co filled with L-NAME) was canulated to right jugular vien (RJV) and implanted subcutaneously at the dorsum of the neck. L-NAME was infusion from ALZA miniature pump at a rate of 500 ng/minute for 24 hours. One day after the rat was anesthetized again with ketamine and xylazine and the both left jugular vein (LJV) and right common carotid (for MABP monitoring) was canulated. After the rats stabilized, Pet-120 was administered through the LJV (50 μg).
The efficacy of Pet-120, an exemplary NO-donating compound according to some embodiments of the present invention, was assayed as presented hereinabove in animals which were treated with phenylephrine so as to heighten their mean arterial blood pressure.

“Also recorded” adds a separate entry of the source.

On to `Cc1nc(-c2ccc([N+](=O)[O-])cc2)sc1CCO[N+](=O)[O-]` [Pet-120, 4-Methyl-5-(2-nitrooxy-ethyl)-2-(4-nitro-phenyl)-thiazole], for which the “tolerance induction in vitro (vasorelaxation, pre-treated versus control rings)” value in the experiment on isolated rat aorta [1] was “absence of tolerance induction; also recorded: lack of tolerance inducement”. Moreover, the “tolerance induction after daily in-vivo administration over 7 days versus single dose (vasorelaxation in isolated aorta)” value in the experiment with isolated rat aorta [2] is reported as “absence of tolerance inducement; also recorded: not to induce tolerance”. Moreover, the “accumulation of cyclic-GMP as compared with GTN” value in experiment [3] (isolated rat aorta, radioimmunoassay) is reported as “increased levels of cGMP”. Besides, the “cGMP Post-infusion” value in experiment [3] (rat thoracic aorta, post-infusion (repeated treatment)) is 133 ± 12 pmol/g tissue. Further, the “effect on mean arterial blood pressure (MABP)” value in the experiment on Sprague-Dawley rats is listed as “reducing the MABP to its original levels”.
